According to patent publication US10150737B2, “Compounds for controlling arthropods” (priority 2013, dated 2018):

Key:
[1] = tested on: Phaedon cochleariae; assay: Phaedon cochleariae - spray test; assay type: in vivo; settings: larvae on Chinese cabbage leaf discs, after 7 days
Procedure: (§1) Solvent: 78.0 parts by weight of acetone and 1.5 parts by weight of dimethylformamide
(§2) Emulsifier: alkylaryl polyglycol ether
(§3) To produce an appropriate active ingredient formulation, 1 part by weight of active ingredient is dissolved using the specified parts by weight of solvent and made up with water containing an emulsifier concentration of 1000 ppm until the desired concentration is attained. To produce further test concentrations, the preparation is diluted with emulsifier-containing water.
Discs of Chinese cabbage leaves (Brassica pekinensis) are sprayed with an active ingredient formulation of the desired concentration and, after drying, populated with larvae of the mustard beetle (Phaedon cochleariae).
After 7 days, efficacy in % is determined. 100% means that all the beetle larvae have been killed; 0% means that no beetle larvae have been killed.

[2] = logP determination by HPLC on a reversed-phase column (C18); assay type: physicochemical; settings: for log P: HPLC-MS; for logP^a): HPLC-MS method a); for logP: HPLC, C18 reversed phase, acetonitrile/water with formic acid, EEC Directive 79/831 Annex V.A8
[3] = tested on: Tetranychus urticae; assay: Tetranychus urticae - spray test, OP-resistant; assay type: in vivo; settings: bean leaf discs, after 6 days
Procedure: as §1, §2, §3
Discs of bean leaves (Phaseolus vulgaris) infested by all stages of the greenhouse red spider mite (Tetranychus urticae) are sprayed with an active ingredient formulation of the desired concentration.
After 6 days, efficacy in % is determined. 100% means that all the spider mites have been killed; 0% means that none of the spider mites have been killed.

[4] = tested on: Lucilia cuprina; assay: Lucilia cuprina test; assay type: in vivo; settings: application rate 100 ppm; L1 larvae; after 2 days
Procedure: (§4) Solvent: dimethyl sulphoxide
To produce an appropriate active ingredient formulation, 10 mg of active ingredient are mixed with 0.5 ml of dimethyl sulphoxide, and the concentrate is diluted with water to the desired concentration.
About 20 L1 larvae of the Australian sheep blowfly (Lucilia cuprina) are transferred into a test vessel containing minced horsemeat and the active ingredient preparation of the desired concentration.
After 2 days, the kill in % is determined. 100% means that all the larvae have been killed; 0% means that none of the larvae have been killed.

[5] = tested on: Boophilus microplus; assay: Boophilus microplus - injection test; assay type: in vivo; settings: application rate 20 μg/animal; injection into engorged adult female ticks; after 7 days
Procedure: as §4
To produce an appropriate active ingredient formulation, 10 mg of active ingredient are mixed with 0.5 ml of solvent and the concentrate is diluted with solvent to the desired concentration.
1 μl of the active ingredient solution is injected into the abdomen of 5 engorged adult female cattle ticks (Boophilus microplus). The animals are transferred into dishes and kept in a climate-controlled room.
Efficacy is assessed after 7 days by laying of fertile eggs. Eggs which are not visibly fertile are stored in a climate-controlled cabinet until the larvae hatch after about 42 days. An efficacy of 100% means that none of the ticks has laid any fertile eggs; 0% means that all the eggs are fertile.

[6] = tested on: Ctenocephalides felis; assay: Ctenocephalides felis - oral test; assay type: in vivo; settings: application rate 100 ppm in citrated cattle blood; after 2 days
Procedure: as §4
For the purpose of producing an appropriate active ingredient formulation, 10 mg of active ingredient are mixed with 0.5 ml of dimethyl sulphoxide. Dilution with citrated cattle blood gives the desired concentration.
About 20 unfed adult cat fleas (Ctenocephalides felis) are placed into a chamber which is closed at the top and bottom with gauze. A metal cylinder whose bottom end is closed with parafilm is placed onto the chamber. The cylinder contains the blood/active ingredient preparation, which can be imbibed by the fleas through the parafilm membrane.
After 2 days, the kill in % is determined. 100% means that all of the fleas have been killed; 0% means that none of the fleas have been killed.

[7] = tested on: Spodoptera frugiperda; assay: Spodoptera frugiperda - spray test; assay type: in vivo; settings: caterpillars on maize leaf discs, after 7 days
Procedure: as §1, §2, §3
Leaf discs of maize (Zea mays) are sprayed with an active ingredient formulation of the desired concentration and, after drying, populated with caterpillars of the armyworm (Spodoptera frugiperda).
After 7 days, efficacy in % is determined. 100% means that all the caterpillars have been killed; 0% means that no caterpillars have been killed.

[8] = reversed-phase column (C18), Table I-T3

Row | SMILES | efficacy ([1]; application rate 100 g/ha) [%] | log P [2, 8] | efficacy ([3]; application rate 100 g/ha) [%] | logP^a) [2] | efficacy ([7]; application rate 100 g/ha) [%] | also measured
1 | CCSc1cc(C(F)(F)F)cc(Cl)c1-n1cc(-c2ccc(Cl)c(C(=O)NC3CC3)c2)cn1 [I-T3-172] | 100 | 3.9 | 90 | – | – | –
2 | O=C(NC1CC1)c1cc(-c2cnn(-c3ncc(C(F)(F)F)cc3Cl)c2)ccc1Cl [I-T3-60] | – | – | – | 3.2 | – | efficacy (kill) [4]: 90%; efficacy (laying of fertile eggs) [5]: 100%; logP^a) [2, 8]: 3.2; efficacy (kill) [6]: 90%
3 | CCSc1cc(C(F)(C(F)(F)F)C(F)(F)F)cc(Cl)c1-n1cc(-c2ccc(Cl)c(C(=O)NC3(C#N)CC3)c2)cn1 [I-T3-192] | 100 | 4.5 | 100 | – | 100 | –
4 | CCS(=O)(=O)c1cc(C(F)(F)F)cc(Cl)c1-n1cc(-c2ccc(Cl)c(C(=O)NC3CC3)c2)cn1 [I-T3-178] | 100 | 3.2 | 100 | – | – | –
5 | CN(C(=O)c1cc(-c2ccn(-c3c(Cl)cc(C(F)(C(F)(F)F)C(F)(F)F)cc3Cl)c2)cnc1Cl)C1(C#N)CC1 [I-T46-6] | 100 | – | 100 | – | 100 | logP [2]: 4.8
6 | Cc1cc(C(F)(C(F)(F)F)C(F)(F)F)cc(C(F)(F)F)c1-n1cc(-c2cnc(Cl)c(C(=O)NCC3(C#N)CC3)c2)cn1 [I-T3-197] | 100 | 4.0 | 100 | – | 100 | –
7 | Cc1cc(C(F)(C(F)(F)F)C(F)(F)F)cc(C)c1-c1ccn(-c2ccc(Cl)c(C(=O)NC3(C#N)CC3)c2)n1 [I-T2-2] | 100 | – | – | 4.8 | 100 | efficacy (laying of fertile eggs) [5]: 100%
8 | O=C(NC1CC1)c1cc(-c2ccn(-c3c(Cl)cc(C(F)(C(F)(F)F)C(F)(F)F)cc3Cl)c2)cnc1Cl [I-T46-4] | 100 | – | 100 | – | 100 | logP [2]: 4.5
9 | CCS(=O)(=O)c1cc(C(F)(F)F)cc(C#N)c1-n1cc(-c2ccc(Cl)c(C(=O)NC3CC3)c2)cn1 [I-T3-180] | 100 | 2.8 | 100 | – | – | –
10 | CCSc1cc(C(F)(C(F)(F)F)C(F)(F)F)cc(SCC)c1-n1cc(-c2ccc(Cl)c(C(=O)NC3(C#N)CC3)c2)cn1 [I-T3-191] | 100 | 4.7 | – | – | 100 | –
11 | N#CC1(NC(=O)c2cc(-c3cnn(-c4c(Cl)cc(C(O)(C(F)(F)F)C(F)(F)F)cc4Cl)c3)cnc2Cl)CC1 [I-T3-222] | 100 | 3.0 | 100 | – | – | –
12 | Cc1cc(C(F)(C(F)(F)F)C(F)(F)F)cc(C)c1-n1cc(-c2cc(C(=O)NC3(C#N)CC3)ccc2F)cn1 [I-T3-19] | – | – | – | 4.3 | – | efficacy ([1]; application rate 500 g/ha): 100%; efficacy (laying of fertile eggs) [5]: 100%; logP^a) [2, 8]: 4.3; efficacy ([7]; application rate 500 g/ha): 100%; efficacy (kill) [6]: 95%
13 | O=C(NCC(F)(F)F)c1cc(-c2cnn(-c3ccc(C(F)(C(F)(F)F)C(F)(F)F)cc3OC(F)(F)F)c2)ccc1Cl [I-T3-36] | – | – | – | 5.0 | – | efficacy (kill) [4]: 100%; efficacy ([1]; application rate 500 g/ha): 100%; efficacy (laying of fertile eggs) [5]: 100%; logP^a) [2, 8]: 5.0; efficacy (kill) [6]: 80%
14 | CN(C(=O)c1cc(-c2cnn(-c3c(Cl)cc(C(O)(C(F)(F)F)C(F)(F)F)cc3Cl)c2)cnc1Cl)C1(C#N)CC1 [I-T3-223] | 100 | 3.3 | 100 | – | – | –
15 | N#CC1(NC(=O)c2cccc(-c3cnn(-c4c(Cl)cc(C(F)(C(F)(F)F)C(F)(F)F)cc4Cl)c3)c2F)CC1 [I-T3-22] | – | – | – | 4.1 | – | efficacy ([1]; application rate 500 g/ha): 100%; logP^a) [2, 8]: 4.1; efficacy ([7]; application rate 500 g/ha): 100%; efficacy ([3]; application rate 500 g/ha): 100%
16 | O=C(NCC(F)(F)F)c1cc(-c2cnn(-c3ccc(C(F)(C(F)(F)F)C(F)(F)F)cc3Cl)c2)ccc1Cl [I-T3-32] | – | – | – | 4.7 | – | efficacy (kill) [4]: 100%; efficacy (laying of fertile eggs) [5]: 100%; logP^a) [2, 8]: 4.7; efficacy (kill) [6]: 100%
17 | CCS(=O)(=O)c1cc(C(F)(F)F)cc(C#N)c1-n1cc(-c2ccc(Cl)c(C(=O)NC3(C#N)CC3)c2)cn1 [I-T3-190] | 100 | 2.9 | 100 | – | – | –
18 | Cc1cc(C(F)(C(F)(F)F)C(F)(F)F)cc(C)c1-n1cc(-c2cc(C(=O)NC3CC3)c(F)cc2Cl)cn1 [I-T3-11] | – | – | – | 4.9 | – | efficacy (laying of fertile eggs) [5]: 100%; logP^a) [2, 8]: 4.9; efficacy (kill) [6]: 95%
19 | CCS(=O)(=O)c1cc(C(F)(C(F)(F)F)C(F)(F)F)cc(S(=O)(=O)CC)c1-n1cc(-c2ccc(Cl)c(C(=O)NC3(C#N)CC3)c2)cn1 [I-T3-198] | 100 | 3.7 | – | – | 100 | –
20 | N#CC1(NC(=O)c2cc(-c3ccn(-c4c(Cl)cc(C(F)(C(F)(F)F)C(F)(F)F)cc4Cl)c3)cnc2Cl)CC1 [I-T46-5] | 100 | – | 100 | – | 100 | logP [2]: 4.4
21 | CN(C(=O)c1cc(-c2ccn(-c3c(Cl)cc(C(F)(C(F)(F)F)C(F)(F)F)cc3Cl)c2)cnc1Cl)C1CC1 [I-T46-3] | 100 | – | – | – | 100 | logP [2]: 5.0
22 | Cc1cc(C(F)(C(F)(F)F)C(F)(F)F)cc(C)c1-n1cc(-c2ccc(Cl)c(C(=O)NCC(=O)NCC(F)(F)F)c2)cn1 [I-T3-6] | 100 | – | – | 4.1 | – | efficacy (kill) [4]: 100%; efficacy (laying of fertile eggs) [5]: 100%; logP^a) [2, 8]: 4.1
23 | O=C(NC1CC1)c1cc(-c2cnn(-c3c(Cl)cc(C(O)(C(F)(F)F)C(F)(F)F)cc3Cl)c2)cnc1Cl [I-T3-221] | 100 | 3.0 | 100 | – | – | –
24 | CCS(=O)(=O)c1cc(C(F)(F)F)cc(Cl)c1-n1cc(-c2ccc(Cl)c(C(=O)NC3(C#N)CC3)c2)cn1 [I-T3-183] | 100 | 3.1 | 100 | – | – | –
25 | CCSc1cc(C(F)(F)F)cc(C#N)c1-n1cc(-c2ccc(Cl)c(C(=O)NC3(C#N)CC3)c2)cn1 [I-T3-177] | 100 | 3.4 | 100 | – | 83 | –
26 | CC[S+]([O-])c1cc(C(F)(C(F)(F)F)C(F)(F)F)cc(Cl)c1-n1cc(-c2ccc(Cl)c(C(=O)NC3(C#N)CC3)c2)cn1 (centres unmarked) [I-T3-195] | 100 | 3.8 | 90 | – | – | –
27 | N#CC1(NC(=O)c2cc(-c3cnn(-c4c(Cl)cc(C(F)(F)F)cc4[N+](=O)[O-])c3)ccc2Cl)CC1 [I-T3-169] | 100 | 3.2 | 100 | – | 83 | –
28 | CC[S+]([O-])c1cc(C(F)(F)F)cc(C#N)c1-n1cc(-c2ccc(Cl)c(C(=O)NC3CC3)c2)cn1 (centres unmarked) [I-T3-181] | 100 | 2.7 | 100 | – | – | –
29 | O=C(NC1CC1)c1cc(-c2cnn(-c3ncc(C(F)(C(F)(F)F)C(F)(F)F)cc3Cl)c2)ccc1Cl [I-T3-152] | 100 | 4.1 | – | – | 100 | logP^a) ([2]; reversed-phase column (C18)): 4.1
30 | O=C(NCCC(F)(F)F)c1cc(-c2cnn(-c3ccc(C(F)(C(F)(F)F)C(F)(F)F)cc3Cl)c2)ccc1Cl [I-T3-33] | – | – | – | 4.7 | – | efficacy (kill) [4]: 100%; efficacy (laying of fertile eggs) [5]: 100%; logP^a) [2, 8]: 4.7; efficacy (kill) [6]: 100%
